ChEMBL document CHEMBL1201862, “PubChem BioAssay data set” (2004)
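1) Cells in 96-well plates. 2) Compound, 48 h, 5 concentrations. 3) Linear interpolation between surrounding doses. 4) Unreached endpoint = highest concentration. GI50 is the concentration that inhibits growth by half.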 Activity calls are given as the source filed them. Cut-off read from the data, not from the text of the source: active = GI50 up to about 1.1 µM and inactive = higher.

Key:
Experiment in all cases: NCI-60 cell line screen, 48 h
786-0 = system: 786-0
EKVX = system: EKVX
OVCAR-4 = system: OVCAR-4
LOX IMVI = system: LOX IMVI
M14 = system: M14
SR = system: SR
SNB-75 = system: SNB-75
A549 = system: A549
CAKI-1 = system: CAKI-1
M19-MEL = system: M19-MEL
NCI-H460 = system: NCI-H460
K562 = system: K562
HOP-18 = system: HOP-18
COLO 205 = system: COLO 205
UACC-257 = system: UACC-257
KM12 = system: KM12
NCI-H23 = system: NCI-H23
SK-MEL-28 = system: SK-MEL-28
T47D = system: T47D
HT-29 = system: HT-29
A498 = system: A498
SK-MEL-2 = system: SK-MEL-2
LXFL 529 = system: LXFL 529
HCC 2998 = system: HCC 2998
RPMI-8226 = system: RPMI-8226
SNB-78 = system: SNB-78
MCF7 = system: MCF7
HCT-116 = system: HCT-116
PC-3 = system: PC-3
HL-60 = system: HL-60
UACC-62 = system: UACC-62
NCI/ADR-RES = system: NCI/ADR-RES
MDA-MB-435 = system: MDA-MB-435
MDA-N = system: MDA-N
HOP-92 = system: HOP-92
OVCAR-5 = system: OVCAR-5
SW-620 = system: SW-620
MDA-MB-231 = system: MDA-MB-231
SK-OV-3 = system: SK-OV-3
HOP-62 = system: HOP-62
DMS-273 = system: DMS-273
ACHN = system: ACHN
SK-MEL-5 = system: SK-MEL-5
SNB-19 = system: SNB-19
IGROV-1 = system: IGROV-1
NCI-H226 = system: NCI-H226
OVCAR-8 = system: OVCAR-8
SF-268 = system: SF-268
SF-295 = system: SF-295
TK-10 = system: TK-10
RXF 393 = system: RXF 393
SF-539 = system: SF-539
CCRF-CEM = system: CCRF-CEM
OVCAR-3 = system: OVCAR-3
DMS-114 = system: DMS-114
UO-31 = system: UO-31
KM-20L2 = system: KM-20L2
Hs-578T = system: Hs-578T
U-251 = system: U-251
DU-145 = system: DU-145
MOLT-4 = system: MOLT-4
HCT-15 = system: HCT-15
SN12C = system: SN12C
DLD-1 = system: DLD-1
NCI-H522 = system: NCI-H522
XF498 = system: XF498
Malme-3M = system: Malme-3M

SMILES: Cc1cc(O)nc(NN2C(Cl)C(=O)C2c2ccccc2O)n1 (centres undefined)
- GI50 (786-0): 2.53 µM (inactive)
- GI50 (EKVX): 3.27 µM (inactive)
- GI50 (OVCAR-4): 8.49 µM (inactive)
- GI50 (LOX IMVI): 1.02 µM (active)
- GI50 (M14): 3.15 µM (inactive)
- GI50 (SR): 0.796 µM (active)
- GI50 (SNB-75): 2.54 µM (inactive)
- GI50 (A549): 4.26 µM (inactive)
- GI50 (CAKI-1): 1.64 µM (inactive)
- GI50 (M19-MEL): 3.84 µM (inactive)
- GI50 (NCI-H460): 0.726 µM (active)
- GI50 (K562): 1.08 µM (active)
- GI50 (HOP-18): 1.6 µM (inactive)
- GI50 (COLO 205): 12.1 µM (inactive)
- GI50 (UACC-257): 3.4 µM (inactive)
- GI50 (KM12): 4.32 µM (inactive)
- GI50 (NCI-H23): 5.45 µM (inactive)
- GI50 (SK-MEL-28): 4.94 µM (inactive)
- GI50 (T47D): 3.99 µM (inactive)
- GI50 (HT-29): 8.39 µM (inactive)
- GI50 (A498): 12.2 µM (inactive)
- GI50 (SK-MEL-2): 1.61 µM (inactive)
- GI50 (LXFL 529): 2.62 µM (inactive)
- GI50 (HCC 2998): 2.67 µM (inactive)
- GI50 (RPMI-8226): 3.06 µM (inactive)
- GI50 (SNB-78): 24.3 µM (inactive)
- GI50 (MCF7): 2.48 µM (inactive)
- GI50 (HCT-116): 2.14 µM (inactive)
- GI50 (PC-3): 1.32 µM (inactive)
- GI50 (HL-60): 0.689 µM (active)
- GI50 (UACC-62): 1.6 µM (inactive)
- GI50 (NCI/ADR-RES): 1.54 µM (inactive)
- GI50 (MDA-MB-435): 5.68 µM (inactive)
- GI50 (MDA-N): 4.36 µM (inactive)
- GI50 (HOP-92): 5.26 µM (inactive)
- GI50 (OVCAR-5): 12.9 µM (inactive)
- GI50 (SW-620): 3.27 µM (inactive)
- GI50 (MDA-MB-231): 4.39 µM (inactive)
- GI50 (SK-OV-3): 1.44 µM (inactive)
- GI50 (HOP-62): 1.76 µM (inactive)
- GI50 (DMS-273): 1.96 µM (inactive)
- GI50 (ACHN): 1.44 µM (inactive)
- GI50 (SK-MEL-5): 2.66 µM (inactive)
- GI50 (SNB-19): 5.85 µM (inactive)
- GI50 (IGROV-1): 3.75 µM (inactive)
- GI50 (NCI-H226): 2.39 µM (inactive)
- GI50 (OVCAR-8): 2.66 µM (inactive)
- GI50 (SF-268): 1.53 µM (inactive)
- GI50 (SF-295): 2.76 µM (inactive)
- GI50 (TK-10): 19.4 µM (inactive)
- GI50 (RXF 393): 3.03 µM (inactive)
- GI50 (SF-539): 4.54 µM (inactive)
- GI50 (CCRF-CEM): 0.547 µM (active)
- GI50 (OVCAR-3): 0.33 µM (active)
- GI50 (DMS-114): 1.32 µM (inactive)
- GI50 (UO-31): 2.06 µM (inactive)
- GI50 (KM-20L2): 10.7 µM (inactive)
- GI50 (Hs-578T): 26.8 µM (inactive)
- GI50 (U-251): 2.76 µM (inactive)
- GI50 (DU-145): 4.06 µM (inactive)
- GI50 (MOLT-4): 0.585 µM (active)
- GI50 (HCT-15): 0.65 µM
- GI50 (SN12C): 2.7 µM (inactive)

SMILES: CC12CCC3=C(CSC4=C3CSc3ccccc34)C1=CCCC2=O (centres undefined)
- GI50 (EKVX): 42.5 µM (inactive)
- GI50 (OVCAR-4): 14.8 µM (inactive)
- GI50 (LOX IMVI): 69.8 µM (inactive)
- GI50 (M14): 27.8 µM (inactive)
- GI50 (DLD-1): 29.4 µM (inactive)
- GI50 (SR): 65.8 µM (inactive)
- GI50 (A549): 36.5 µM (inactive)
- GI50 (CAKI-1): 35.1 µM (inactive)
- GI50 (M19-MEL): 86.9 µM (inactive)
- GI50 (NCI-H460): 45.2 µM (inactive)
- GI50 (K562): 40.8 µM (inactive)
- GI50 (HOP-18): 39.3 µM (inactive)
- GI50 (COLO 205): 20.3 µM (inactive)
- GI50 (KM12): 54.2 µM (inactive)
- GI50 (NCI-H23): > 100 µM (inactive)
- GI50 (SK-MEL-28): > 100 µM (inactive)
- GI50 (HT-29): 34.1 µM (inactive)
- GI50 (SK-MEL-2): 64.3 µM (inactive)
- GI50 (LXFL 529): 37.1 µM (inactive)
- GI50 (HCC 2998): 47.4 µM (inactive)
- GI50 (RPMI-8226): 61.2 µM (inactive)
- GI50 (HCT-116): 58.3 µM (inactive)
- GI50 (HL-60): 73.1 µM (inactive)
- GI50 (NCI-H522): 27.4 µM (inactive)
- GI50 (OVCAR-5): 37.8 µM (inactive)
- GI50 (SW-620): > 100 µM (inactive)
- GI50 (HOP-62): 20.4 µM (inactive)
- GI50 (DMS-273): 82.8 µM (inactive)
- GI50 (ACHN): 69.2 µM (inactive)
- GI50 (SK-MEL-5): 17.4 µM (inactive)
- GI50 (SNB-19): 66.5 µM (inactive)
- GI50 (NCI-H226): 64.3 µM (inactive)
- GI50 (OVCAR-8): 78.5 µM (inactive)
- GI50 (SF-268): > 100 µM (inactive)
- GI50 (TK-10): 38 µM (inactive)
- GI50 (RXF 393): 40.2 µM (inactive)
- GI50 (SF-539): 75.7 µM (inactive)
- GI50 (CCRF-CEM): 69.8 µM (inactive)
- GI50 (OVCAR-3): 13.5 µM (inactive)
- GI50 (DMS-114): 69.5 µM (inactive)
- GI50 (UO-31): 70.1 µM (inactive)
- GI50 (KM-20L2): 51.6 µM (inactive)
- GI50 (U-251): 42.8 µM (inactive)
- GI50 (MOLT-4): 16.8 µM (inactive)
- GI50 (XF498): 19.7 µM (inactive)
- GI50 (Malme-3M): 31 µM (inactive)
- GI50 (HCT-15): 29.8 µM
- GI50 (SN12C): > 100 µM (inactive)

SMILES: COc1ccc2[nH]c3c(C)cc([N+](=O)[O-])c(C)c3c2c1
- GI50 (786-0): 21.8 µM (inactive)
- GI50 (EKVX): 31 µM (inactive)
- GI50 (OVCAR-4): 33 µM (inactive)
- GI50 (M14): 21.1 µM (inactive)
- GI50 (DLD-1): 26.6 µM (inactive)
- GI50 (SR): 17.7 µM (inactive)
- GI50 (SNB-75): 20.4 µM (inactive)
- GI50 (A549): 25 µM (inactive)
- GI50 (CAKI-1): 19.4 µM (inactive)
- GI50 (M19-MEL): 21.9 µM (inactive)
- GI50 (NCI-H460): 15.5 µM (inactive)
- GI50 (K562): 18.4 µM (inactive)
- GI50 (HOP-18): 26.1 µM (inactive)
- GI50 (COLO 205): 26.3 µM (inactive)
- GI50 (UACC-257): 31.2 µM (inactive)
- GI50 (KM12): 19.7 µM (inactive)
- GI50 (NCI-H23): 22.6 µM (inactive)
- GI50 (SK-MEL-28): 24.7 µM (inactive)
- GI50 (HT-29): 28.5 µM (inactive)
- GI50 (A498): 21.6 µM (inactive)
- GI50 (SK-MEL-2): 20.6 µM (inactive)
- GI50 (LXFL 529): 25.5 µM (inactive)
- GI50 (HCC 2998): 25.4 µM (inactive)
- GI50 (RPMI-8226): 17.7 µM (inactive)
- GI50 (HCT-116): 17.9 µM (inactive)
- GI50 (HL-60): 16.6 µM (inactive)
- GI50 (NCI-H522): 17.1 µM (inactive)
- GI50 (HOP-92): 28.4 µM (inactive)
- GI50 (SW-620): 21.7 µM (inactive)
- GI50 (SK-OV-3): 28.2 µM (inactive)
- GI50 (DMS-273): 13.6 µM (inactive)
- GI50 (ACHN): 22 µM (inactive)
- GI50 (SK-MEL-5): 25.6 µM (inactive)
- GI50 (SNB-19): 37.8 µM (inactive)
- GI50 (IGROV-1): 27.4 µM (inactive)
- GI50 (NCI-H226): 43.7 µM (inactive)
- GI50 (OVCAR-8): 23 µM (inactive)
- GI50 (SF-268): 37.3 µM (inactive)
- GI50 (SF-295): 41.4 µM (inactive)
- GI50 (TK-10): 27.1 µM (inactive)
- GI50 (RXF 393): 19 µM (inactive)
- GI50 (SF-539): 23.7 µM (inactive)
- GI50 (CCRF-CEM): 17.9 µM (inactive)
- GI50 (OVCAR-3): 37.8 µM (inactive)
- GI50 (DMS-114): 23.3 µM (inactive)
- GI50 (UO-31): 21.6 µM (inactive)
- GI50 (KM-20L2): 47.5 µM (inactive)
- GI50 (U-251): 22.9 µM (inactive)
- GI50 (MOLT-4): 20.5 µM (inactive)
- GI50 (XF498): 34.2 µM (inactive)
- GI50 (Malme-3M): 28.6 µM (inactive)
- GI50 (HCT-15): 26.6 µM
- GI50 (SN12C): 31.3 µM (inactive)
